Molecular target: Tyrosine-protein phosphatase non-receptor type 7 (Homo sapiens) (UniProt P35236)
Assay: inhibition of recombinant HePTP activity – biochemical, fluorescence, secondary assay, dose response (AID 1077)
Settings: fluorogenic substrate

Sequence of Tyrosine-protein phosphatase non-receptor type 7 (Homo sapiens) (P35236 whole entry, looked up): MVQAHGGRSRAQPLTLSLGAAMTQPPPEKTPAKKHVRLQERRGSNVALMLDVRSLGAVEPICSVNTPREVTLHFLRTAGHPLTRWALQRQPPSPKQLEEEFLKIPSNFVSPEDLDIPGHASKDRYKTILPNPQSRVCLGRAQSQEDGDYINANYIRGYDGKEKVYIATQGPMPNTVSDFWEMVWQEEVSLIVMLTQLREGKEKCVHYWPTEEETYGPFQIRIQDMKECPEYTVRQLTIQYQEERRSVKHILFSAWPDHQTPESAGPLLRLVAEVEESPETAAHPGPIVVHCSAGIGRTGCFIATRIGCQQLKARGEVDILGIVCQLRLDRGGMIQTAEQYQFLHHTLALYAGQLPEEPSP

- IC50: 15 µM
Compound: CCOc1ccc2nc(NC(=O)CSC3=Nc4sc(C)c(C)c4C(=O)C3)sc2c1
